The values below come from article PMC12700902 (Communications Biology, 2025).

“And” between values parts separate entries of the source, which are not always exact repeats. Identical values can stand only once. “Also recorded” adds a separate entry of the source. Like-named read-outs stand apart in the source and are kept apart here.

Assay [1] concerns X. laevis oocytes injected with water only. The experiment in a line: Oocytes injected with water only. It is filed as cell-based, Xenopus laevis. On the procedure: (§1) Oocytes were mainly obtained either from Ecocyte (https://ecocyte-us.com/products/xenopus-oocyte-delivery-service/), which arrived ready for injection, or from the European Xenopus Resource Centre (https://xenopusresource.org/resources) as ovarian sections. In the latter case, oocytes were either prepared for injection by incubation in collagenase type I in OR2 (sodium chloride 82 mM, potassium chloride 2 mM, magnesium chloride 2 mM, HEPES 5 mM, pH 7.6) at 2 mg/ml for 45 min at room temperature and shaking at 150 RPM[19] or by manual defolliculation followed by incubation with 0.5 mg/ml collagenase type I in OR2 for 6 min at room temperature at 150 RPM. Oocyte nuclei were injected with 23 nl of A. mellifera α5 DNA cloned into the pCI vector[19] […] Mutant A. mellifera α5 subunits (in pCI) were injected at 100–500 ng/µl. […] Oocytes were clamped at −80 mV and responses were recorded on a flatbed chart recorder (Kipp and Zonen BD-11E, Delft, The Netherlands). The oocytes were continuously perfused with SOS at a flow rate of 10 ml/min. Oocytes were selected for experiments if responses were consistent for two or more applications of the normalising concentration of agonist. Test chemicals were applied at 3 min intervals. Agonist concentration response curves were created by measuring the response of the oocytes to different agonist concentrations in SOS, responses were normalised to the maximal response induced by the agonist. Amitraz (10 mM) was dissolved in DMSO and then at a working concentration in 1:1000 ratio in SOS. All other chemicals were either dissolved in distilled water to make frozen stocks (100 mM) or dissolved directly in SOS (10 mM) on the day of use. […] Oocytes were clamped at voltages ranging between −100 and +40 mV to determine the current voltage relationship.

The target of assay [2] is A. mellifera α5 nAChR (Apis mellifera, UniProt A0A0H3V1C5). The assay can be described thus: Two-electrode voltage clamp of X. laevis oocytes expressing the A. mellifera α5 nAChR (wild-type). The following applies: for normalised current response (Fig. 1c source data): single oocytes, normalised to maximal concentration of Fig. 1b. It counts as cell-based. On the procedure:
as §1
Concentration-response data were fitted with the Hill equation: y=Imax/1/EC50/agonist^nH where y is the normalised current amplitude, Imax is the maximal response Imax/Iagonistmax , EC50 is the agonist concentration at half-maximal efficacy, [agonist] is the agonist concentration and nH is the Hill coefficient, to estimate the EC50 and Hill coefficient. Curve fitting was carried out using GraphPad software version 10 (GraphPad Software, La Jolla, CA, United States). […] The peak of the current responses was normalised to the agonist concentration that gave a maximal response. Error bars on graphs show standard error, ‘n’ indicates the number of experiments and ‘batch’ indicates the number of frogs these oocytes came from. Values are shown as mean ± 95% confidence limits.
In general terms: Two-electrode voltage clamp is typically applied to oocytes expressing channels or transporters.

Assay [3] concerns α5 subunit of D. melanogaster. The following applies: homomeric receptor; cited from earlier work.
Setting [4] is: Table 1 series, mean (95% confidence limits).
Where [5] appears, read: Table 1 series, oocytes clamped at −80 mV, mean (95% confidence limits), read-out: EC50.
[6] abbreviates: read-out: Maximum response relative to 5 mM ACh (%).
Where [7] appears, read: 1 mM, applied 3 min after 5 mM ACh.

A. mellifera α5 nAChR, sequence (A0A0H3V1C5 entry or part of it): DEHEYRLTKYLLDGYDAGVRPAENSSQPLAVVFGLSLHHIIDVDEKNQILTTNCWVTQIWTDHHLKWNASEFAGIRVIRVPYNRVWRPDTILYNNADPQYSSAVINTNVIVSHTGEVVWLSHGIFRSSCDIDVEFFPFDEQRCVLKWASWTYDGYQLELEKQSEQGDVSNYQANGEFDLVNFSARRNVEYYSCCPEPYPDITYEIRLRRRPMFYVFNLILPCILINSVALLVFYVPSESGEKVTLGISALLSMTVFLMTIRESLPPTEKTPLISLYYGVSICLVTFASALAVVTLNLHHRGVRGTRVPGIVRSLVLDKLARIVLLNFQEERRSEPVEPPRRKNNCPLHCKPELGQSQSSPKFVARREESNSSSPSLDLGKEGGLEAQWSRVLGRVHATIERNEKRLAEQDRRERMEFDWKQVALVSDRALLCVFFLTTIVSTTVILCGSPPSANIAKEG

Broadly, the Hill coefficient is the slope factor of the fitted curve. In general, EC50 refers to the concentration needed to bring the measured effect to its halfway point. As to `NCC(O)c1ccc(O)cc1` (stereo not shown) [Octopamine, octopamine], in assay [1], the “response of water-injected oocytes” value was “no tyramine and octopamine responses”. Further, the Hill coefficient in assay [2] (setting [4]) was 3.727 (2.998–4.455). The EC50 in assay [2] (setting [5]) turned out to be 378 µM. The “normalised current response (Fig. 1c source data)” value (shortened to “normalised current response”) in assay [2] (log[Agonist] M -2.22185, listed as OA) is 1.1 and 0.809; in assay [2] (log[Agonist] M -2.52288, listed as OA), 0.943 and 1.14 and 0.971 and 0.986 and 0.935 and 1.1; in assay [2] (log[Agonist] M -3), 1; in assay [2] (log[Agonist] M -3.22185, listed as OA), 0.892 and 0.674 and 0.971 and 0.901 and 1.01 and 0.859; in assay [2] (log[Agonist] M -3.30103, listed as OA), 0.827 and 0.623; in assay [2] (log[Agonist] M -3.52288, listed as OA) it was 0.284 and 0.276 and 0.462 and 0.451 and 0.389 and 0.232. In assay [2] (log[Agonist] M -5), the “normalised current response” value was 0. In addition, the Emax at 1000 µM in assay [2] (setting [6]) was determined as 899%. For the same compound, the “type of agonist action relative to ACh” value in assay [2] (wild-type) is “superagonists”.

For `NCCc1ccc(O)cc1` [Tyramine, tyramine], the “response of water-injected oocytes” value in assay [1] was “no tyramine and octopamine responses”. Moreover, in assay [2] (setting [4]), the Hill coefficient is 1.918 (1.355–2.481). The concentration for a half-maximal effect (EC50) in assay [2] (setting [5]) came out at 91.1 µM. Further, the “normalised current response” value in assay [2] (log[Agonist] M -3) is 1; in assay [2] (log[Agonist] M -4, listed as TA), 0.538 and 0.456 and 0.597 and 0.416 and 0.62; in assay [2] (log[Agonist] M -5) it was 0. For the same compound, the Emax at 1000 µM in assay [2] (setting [6]) was 770%. The “type of agonist action relative to ACh” value in assay [2] (wild-type) is on record as “superagonists”.

For `NCCc1ccc(O)c(O)c1` [Dopamine, dopamine], the “response of water-injected oocytes” value in assay [1] is reported as “no detectable response; also recorded: no responses were detected”. Besides, in assay [2], the Hill coefficient is 2.220 (1.585–2.855), the “effect of absence of Na+ on agonist response” value was “eliminated the response”, the response on co-application result is on record as “synergistic agonism” and the “response when applied alone” value is given as “did not induce detectable responses”.

As for `NCCCC(=O)O` [GABA, γ-aminobutyric acid], the agonist response entry in assay [2] (setting [7]) is given as “none of them were able to induce detectable responses; also recorded: no agonist actions”.

As for `Cc1ccc(/N=C/N(C)/C=N/c2ccc(C)cc2C)c(C)c1` [amitraz], the antagonist action result in assay [2] (10 µM coapplied with 400 µM octopamine) is listed as “no antagonist actions; also recorded: nor antagonistic actions”. Further, the agonist action result in assay [2] (10 µM, applied 3 min after 5 mM ACh) is “no agonist actions; also recorded: did not show any agonist actions”.

On to `N[C@@H](CCC(=O)O)C(=O)O` [glutamate], for which the agonist response entry in assay [2] (setting [7]) is on record as “none of them were able to induce detectable responses; also recorded: no agonist actions”.

For the compound α-bungarotoxin, in assay [2], the “antagonist action on ACh response” value was “antagonistic actions” and the “washing time after which response to 2 mM ACh was restored” value turned out to be 26 min.

For the compound `C[N+](C)(C)CCO` [Choline], the Hill coefficient in assay [2] is 2.043 (0.9065–3.180). In assay [2] (EC50), this compound displayed a half-maximal effective concentration (EC50) of 9070 µM. In assay [2] (setting [6]), the Emax was found to be 100%.

Consider `NCC(=O)O` [glycine], for which, in assay [2] (setting [7]), the agonist response entry is listed as “none of them were able to induce detectable responses; also recorded: no agonist actions”.

In the case of `NCCc1c[nH]cn1` [Histamine, histamine], in assay [2], the Hill coefficient is 2.500 (1.050–3.950) and the “type of agonist action relative to ACh” value is on record as “partial agonist”. Also, the 50% effective concentration (EC50) in assay [2] (setting [5]) amounted to 3360 µM. Also, the Emax at 5000 µM in assay [2] (setting [6]) came to 45.3%.

In the case of `CC(=O)OCC[N+](C)(C)C` [Acetylcholine, acetylcholine], in assay [3], the 50% effective concentration (EC50) is 8.8 µM. Moreover, in assay [2], the Hill coefficient is reported as 2.304 (1.886–2.721), the “effect of absence of Na+ on agonist response” value is “eliminated the response”, the response on co-application entry is listed as “synergistic agonism” and the “response when applied alone” value is on record as “did not induce detectable responses”. Moreover, the “shape of concentration response curve” value in assay [2] is listed as “biphasic concentration response curve”. The Emax in assay [2] (setting [6]) stood at 100%.

`COc1cc(CCO)ccc1O` [homovanillyl alcohol]: the agonist response entry in assay [2] (100 μM or 1 mM) is recorded as “did not elicit a response; also recorded: no agonist actions”.

Turning to `NCCc1c[nH]c2ccc(O)cc12` [Serotonin], the Hill coefficient in assay [2] (setting [4]) is given as 3.419 (2.503–4.335). The Emax in assay [2] (setting [6]) worked out at 238%.
